Laboratory results taken from patent US11078188B2, “Dihydroquinoxaline bromodomain recognition protein inhibitor, preparation method and use thereof” (SHANGHAI INSTITUTE OF MATERIA MEDICA, CHINESE ACADEMY OF …, priority 2017, dated 2021).

Tests used:
CYP enzyme = assay: Mechanistic inhibition test (TDI test); format: in vitro ADME; conditions: human liver microsomes 0.2 mg/ml; mechanism inhibition if kobs greater than 200
Description: The system which was 200 μl of human liver microsomes (final concentration: 0.2 mg/ml) was used for mechanistic inhibition incubation. The system contained 10 μl compound, mixed positive inhibitor (Troleandomycin 10 μl, Paroxetine 10 μl, Tienilic acid 10 μM, Furafylline 10 μl) or 10 μl negative control PRO. After NADPH (final concentration: 1 mM) or PBS was added, the system was incubated for 0 min, 5 min, 10 min and 30 min, then NADPH (final concentration: 1 mM) and mixed probe substrate (Midazolam 5 μM, Testosterone 50 μl, Dextromethophan 5 μM, Diclofenac 10 μl, Phenacetin 5 0 μM, S-(+)-mephenytoin 50 μl) were added and incubated for 10 min. Then the reaction was stopped. The test for positive inhibitor CYP2C19 was carried out alone, the inhibitor S-(+)-fluoxetine was 100 μM. The enzyme activity was calculated by measuring the relative production amount of metabolite. kobs was calculated.
HLM Clint (μl/min/mg) refers to the clearance rate of compounds in human liver microsomes having a unit of μl/min/mg; mLM Clint (μl/min/mg) refers to the clearance rate of compounds in mouse liver microsomes having a unit of μl/min/mg; HLM t1/2 (min) refers to the half-life of the compound in human liver microsomes having a unit of minutes; mLM t1/2 (min) refers to the half-life of the compound in mouse liver microsomes having a unit of minutes. TDI means that the mechanism inhibition test of compounds on CYP enzyme evaluates whether the compound has time-dependent inhibition of the enzyme.

[1] = tested on: human myeloma cells MM.1S; assay: MM.1S cell viability, CCK-8 method; format: cell-based; conditions: for IC50: 72 h treatment, CCK-8; for inhibitory activity against the MM.1S cell line (in words): compared with positive (+)-JQ1
Description: The MM.1S cell line was tested for cell viability. The test methods were as follows: human myeloma cells MM.1S were treated with compound for 72 h, and the proliferation inhibition effect and degree of the compound were detected by CCK-8 method.

[2] = tested on: MM.1S nude mice xenografts; assay: Growth of MM.1S nude mice xenografts in vivo; design: species or system Balb/C nude mice; conditions: for TV (mm^3, mean) d0: d0 (at start of administration)
Description: Balb/C nude mice (6 weeks, female, Beijing Huafukang Biotechnology Co., Ltd.) were purchased, and the animals were conditioned for about one week before the test. MM.1S cells were cultured in vitro, and the cells in logarithmic growth phase were resuspended in serum-free RPMI1640 medium to adjust the cell concentration. The cell suspension was subcutaneously injected into forefoot armpit of the Balb/C nude mice with a syringe, and each animal was injected with 150 μL (8.0×10^6/mouse). When the average tumor volume grew to about ˜150 mm^3, the animals were divided into 4 groups containing solvent control group, 50 mg/kg OTX-015 group, and 20 and 50 mg/kg compound 6 groups by the randomized block method and each group contained six animals. […] During the administration period, the tumor diameter was measured twice a week, the body weight of the animals was weighed, the living state of the animals was observed, and abnormal conditions were recorded.
The formula for calculating tumor volume (TV): TV=½×a×b^2, where a and b represent length and width, respectively.
The relative tumor volume (RTV) was calculated based on the measured results, and the calculation formula was: RTV=Vt/V0. Wherein V0 was the measured tumor volume at the time of administration by cage (ie, d0), and Vt was the tumor volume at each measurement.
The relative tumor proliferation rate T/C (%) was calculated based on the measured results, and the calculation formula was as follows: T/C (%)=(TRTV/CRTV)×100%, TRTV: treatment group RTV; CRTV: negative control group RTV.

2C19 = 2C19 (Homo sapiens (Human), UniProt P33261); assay: Direct inhibition test (DI test), CYP 2C19; format: in vitro ADME; conditions: human liver microsomes 0.2 mg/ml, 20 min
Sequence of 2C19 (P33261 whole entry): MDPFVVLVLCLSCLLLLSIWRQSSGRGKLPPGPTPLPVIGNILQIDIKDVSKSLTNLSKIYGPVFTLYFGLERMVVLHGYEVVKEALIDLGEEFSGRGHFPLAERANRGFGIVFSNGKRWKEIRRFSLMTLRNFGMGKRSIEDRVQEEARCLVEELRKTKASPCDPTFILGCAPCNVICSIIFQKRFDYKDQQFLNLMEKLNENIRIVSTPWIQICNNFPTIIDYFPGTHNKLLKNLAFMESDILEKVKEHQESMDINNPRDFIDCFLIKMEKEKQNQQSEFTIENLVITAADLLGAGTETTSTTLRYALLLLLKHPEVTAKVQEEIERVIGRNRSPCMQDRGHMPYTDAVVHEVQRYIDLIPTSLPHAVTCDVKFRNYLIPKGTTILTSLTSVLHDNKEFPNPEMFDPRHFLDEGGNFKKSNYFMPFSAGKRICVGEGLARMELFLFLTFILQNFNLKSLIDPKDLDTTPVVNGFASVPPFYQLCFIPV
Description: (§1) The system which was 100 μl of human liver microsomes (final concentration: 0.2 mg/ml) was used for direct inhibition incubation. The system contained NADPH (final concentration: 1 mM), 10 μl compound, positive inhibitor cocktail (ketoconazole, 10 μl, quinidine 10 μl, sulfaphenazole 100 μl, naphthoflavone 10 μl, tranylcypromine 1000 μl), negative control 10 μl DMSO and mixed probe substrate (midazolam 10 μl, testosterone 100 μl, dextromethorphan 10 μl, diclofenac 20 μl, phenacetin 100 μl, mephenytoin 100 μl). The reaction was stopped after the system was incubated for 20 min. The relative activity of the enzyme was calculated by measuring the relative amount of production of the metabolite.

CYP2D6 = CYP2D6 (Homo sapiens (Human), UniProt P10635); assay: Direct inhibition test (DI test), CYP 2D6; format: in vitro ADME; conditions: human liver microsomes 0.2 mg/ml, read-out: Direct inhibition rate (%) 2D6
Sequence of CYP2D6 (P10635 whole entry): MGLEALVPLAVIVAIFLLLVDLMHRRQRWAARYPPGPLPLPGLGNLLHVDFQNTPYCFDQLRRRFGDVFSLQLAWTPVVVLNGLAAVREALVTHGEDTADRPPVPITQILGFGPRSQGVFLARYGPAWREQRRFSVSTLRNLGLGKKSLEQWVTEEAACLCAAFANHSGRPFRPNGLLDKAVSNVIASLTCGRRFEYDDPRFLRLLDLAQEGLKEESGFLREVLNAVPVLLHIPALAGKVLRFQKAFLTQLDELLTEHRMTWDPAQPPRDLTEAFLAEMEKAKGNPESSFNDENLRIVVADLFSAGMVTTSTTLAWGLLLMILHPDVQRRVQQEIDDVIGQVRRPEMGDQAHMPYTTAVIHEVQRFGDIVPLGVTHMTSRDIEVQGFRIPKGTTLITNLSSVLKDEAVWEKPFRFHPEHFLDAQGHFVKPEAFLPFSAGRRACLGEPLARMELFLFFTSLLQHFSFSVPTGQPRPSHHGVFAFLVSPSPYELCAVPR
Description: as §1

2C9 = 2C9 (Homo sapiens (Human), UniProt P11712); assay: Direct inhibition test (DI test), CYP 2C9; format: in vitro ADME; conditions: human liver microsomes 0.2 mg/ml, 20 min
Sequence of 2C9 (P11712 whole entry): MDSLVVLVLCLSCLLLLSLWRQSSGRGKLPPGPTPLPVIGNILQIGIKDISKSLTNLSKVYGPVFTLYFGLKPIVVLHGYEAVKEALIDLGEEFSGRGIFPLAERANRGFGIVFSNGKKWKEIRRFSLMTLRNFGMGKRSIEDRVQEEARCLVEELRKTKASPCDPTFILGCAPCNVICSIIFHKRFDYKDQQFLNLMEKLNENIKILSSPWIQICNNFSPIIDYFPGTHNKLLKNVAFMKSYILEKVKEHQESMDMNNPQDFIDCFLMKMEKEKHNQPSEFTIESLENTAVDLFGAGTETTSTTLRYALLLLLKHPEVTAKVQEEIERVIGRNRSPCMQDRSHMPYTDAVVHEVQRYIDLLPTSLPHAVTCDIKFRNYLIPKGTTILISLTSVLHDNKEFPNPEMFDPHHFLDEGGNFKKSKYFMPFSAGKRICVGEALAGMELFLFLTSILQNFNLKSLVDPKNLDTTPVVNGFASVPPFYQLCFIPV
Description: as §1

1A2 = 1A2 (Homo sapiens (Human), UniProt P05177); assay: Direct inhibition test (DI test), CYP 1A2; format: in vitro ADME; conditions: human liver microsomes 0.2 mg/ml, 20 min
Sequence of 1A2 (P05177 whole entry): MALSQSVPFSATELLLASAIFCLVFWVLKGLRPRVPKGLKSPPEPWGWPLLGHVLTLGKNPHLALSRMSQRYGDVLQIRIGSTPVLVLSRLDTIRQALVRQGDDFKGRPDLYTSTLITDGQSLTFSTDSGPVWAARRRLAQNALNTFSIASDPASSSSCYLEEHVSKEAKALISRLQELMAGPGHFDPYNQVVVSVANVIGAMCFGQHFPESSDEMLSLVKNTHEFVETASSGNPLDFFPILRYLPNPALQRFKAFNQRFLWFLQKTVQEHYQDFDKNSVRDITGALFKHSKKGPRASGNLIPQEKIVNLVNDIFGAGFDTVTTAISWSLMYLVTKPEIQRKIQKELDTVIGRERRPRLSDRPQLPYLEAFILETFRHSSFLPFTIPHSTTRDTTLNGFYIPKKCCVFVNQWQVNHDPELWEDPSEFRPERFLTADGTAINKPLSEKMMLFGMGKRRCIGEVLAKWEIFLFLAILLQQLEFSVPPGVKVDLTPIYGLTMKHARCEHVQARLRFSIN
Description: as §1

CYP3A4 = CYP3A4 (Homo sapiens (Human), UniProt P08684); assay: Direct inhibition test (DI test), CYP 3A4; format: in vitro ADME; conditions: human liver microsomes 0.2 mg/ml, first of two values a/b (two 3A4 probes midazolam, testosterone; assignment not given), read-out: Direct inhibition rate (%) 3A4, first value
Sequence of CYP3A4 (P08684 whole entry): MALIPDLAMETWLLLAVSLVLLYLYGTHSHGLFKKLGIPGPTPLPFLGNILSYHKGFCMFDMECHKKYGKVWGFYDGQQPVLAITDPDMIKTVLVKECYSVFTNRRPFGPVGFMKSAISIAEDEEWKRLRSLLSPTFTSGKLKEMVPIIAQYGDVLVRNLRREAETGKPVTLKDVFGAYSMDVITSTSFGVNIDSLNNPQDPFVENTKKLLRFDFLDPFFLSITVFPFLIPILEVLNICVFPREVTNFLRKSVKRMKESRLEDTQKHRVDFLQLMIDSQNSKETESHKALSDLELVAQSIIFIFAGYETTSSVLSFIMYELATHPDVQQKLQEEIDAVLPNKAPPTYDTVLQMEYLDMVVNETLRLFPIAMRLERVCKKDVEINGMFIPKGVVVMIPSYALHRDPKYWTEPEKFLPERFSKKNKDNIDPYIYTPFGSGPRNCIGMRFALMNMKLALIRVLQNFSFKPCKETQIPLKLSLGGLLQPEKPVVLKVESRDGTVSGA
Description: as §1

Cc1ccc(-n2nc(C(=O)N3CCN(C)CC3)nc2-c2ccc3c(c2)N(C2CCCC2)[C@H](C)C(=O)N3C)cc1 [Example 6]
TDI (CYP enzyme): no
IC50 [1]: 13.6 ± 5.45 nM
inhibitory activity against the MM.1S cell line (in words) [1]: better inhibitory activity against the MM.1S cell line than the positive (+)-JQ1
RTV (mean SD) ([2]; 20 mg/kg qd/14 po): 584.14
T/C (%) ([2]; 20 mg/kg qd/14 po): 48.32%
TV (mm^3, mean) d0 ([2]; 20 mg/kg qd/14 po): 184.28 mm^3
TV (mm^3, mean) d14 ([2]; 20 mg/kg qd/14 po): 1024.45 mm^3
RTV (mean SD) ([2]; 50 mg/kg qd/14 po): 417.16
T/C (%) ([2]; 50 mg/kg qd/14 po): 34.51%
TV (mm^3, mean) d0 ([2]; 50 mg/kg qd/14 po): 185.34 mm^3
TV (mm^3, mean) d14 ([2]; 50 mg/kg qd/14 po): 660.39 mm^3
inhibitory effect on the growth of MM.1S nude mice xenografts (in words) ([2]; oral administration of 50 mg/kg per day): significant inhibitory effect

Cc1ccc(-n2nc(C(=O)N3C[C@@H](C)N[C@@H](C)C3)nc2-c2ccc3c(c2)N(C2CCCC2)[C@H](C)C(=O)N3C)cc1 [Example 12]
Direct inhibition rate (%) 2C19 (2C19): 12%
inhibition at 20 min (CYP2D6): 4%
Direct inhibition rate (%) 2C9 (2C9): 28%
TDI (CYP enzyme): no
Direct inhibition rate (%) 1A2 (1A2): no
IC50 ([1]; Homo sapiens, MM1.S): 5.42 ± 1.14 nM
inhibitory activity against the MM.1S cell line (in words) [1]: better inhibitory activity against the MM.1S cell line than the positive (+)-JQ1
inhibition at 20 min (CYP3A4): 23%
